Measured values reported in patent US5565441A, “Phosphonoacetic esters and acids as anti-inflammatories” (The Upjohn Company, priority 1995, dated 1996).
Like-named read-outs stand apart in the source and are kept apart here.

Test system: DTH granuloma (DTH GRA) lesion in mBSA-sensitized mice
Experiment: Delayed Type Hypersensitivity Granuloma Assay (DTH GRA) model for inflammation
Assay type: in vivo, mouse
Settings: for inhibition in vivo at 10 mg/kg: read-out: % Inhibition (DTH granuloma)
Text: The Formula I compounds of this invention have been tested in a Delayed Type Hypersensitivity Granuloma Assay (DTH GRA) model for inflammation. This assay is described by Dunn, C. J. et al., "Development of a delayed-type hypersensitivity granuloma model in the mouse for the study of chronic immune-mediated inflammatory disease," Agents and Actions, 27, 3/4 (1989) and "Murine Delayed-Type Hypersensitivity Granuloma," Int. J. Immunopharmc., 12, 8, 899-904 (1990).
Briefly, mBSA-sensitized mice have a DTH granuloma (DTH GRA) lesion induced by subcutaneously implanting a mBSA-soaked filter which is excised after nine days. Compounds are administered to the mice to determine their effect on the lesions. The results are recorded as percent inhibition. […] Inhibition of 10 to 20% is considered to indicate anti-granuloma activity. Greater than 30% inhibition is good activity.

[1] = Mus musculus, 216 h, 10 MPK, PO, mBSA-sensitized mice, mBSA-soaked filter excised after nine days

SMILES | inhibition in vivo at 10 mg/kg [1] [%] | further results
COC(=O)C(CCC(=O)c1cccc(F)c1)P(=O)(OC)OC (stereo not drawn) [Compound 2, Benzenepentanoic acid, α-(dimethoxyphosphinyl)-3-fluoro-δ-oxo-,methyl ester] | 26 | 
COC(=O)C(CCc1cc(C)nc2c(C#N)c(C)nn12)P(=O)(OC)OC (stereo not drawn) [Compound 7, Pyrazolo(1,5-a)pyrimidine-7-butanoic acid, 3-cyano-α-(dimethoxyphosphinyl)-2,5-dimethyl-, methyl ester] | 38 | 
COC(=O)C(CCc1nc(-c2ccccc2)cc(=O)n1C)P(=O)(O)O (stereo not drawn) [Compound 6b] | 37 | 
COC(=O)C1(P(=O)(OC)OC)CC1C(=O)c1ccccc1 (stereo not drawn) [Compound 10, Cyclopropanecarboxylic acid, 2-benzoyl-1-(dimethoxyphosphinyl)-, methyl ester] | 47 | 
CCOC(=O)C1=NNC(C(=O)OC)(P(=O)(OC)OC)C1 (stereo not drawn) [Compound 8, 1H-Pyrazole-5-carboxylic-acid, 3-carboethoxy-5-(dimethoxyphosphinyl)-4,5-dihydro, methyl ester] |  | % Inhibition (DTH granuloma) (10 MPK, PO, mBSA-sensitized mice, mBSA-soaked filter excised after nine days): 59%
COP(=O)(OC)C(CCc1nc(-c2ccccc2)cc(=O)n1C)C(=O)OC(C)(C)C (stereo not drawn) [Compound 15, 2-Pyrimidine butanoic acid, α-(dimethoxyphosphinyl)-1,6-dihydro-1-methyl-6-oxo-4-phenyl, dimethylethyl ester] | 21 | 
COC(=O)C1(P(=O)(OC)OC)CN1N1C(=O)c2ccccc2C1=O (stereo not drawn) [Compound 11, 2-Aziridinecarboxylic acid, 1-(1,3-dihydro-1,3-dioxo-2H-isoindol-2-yl)-2-(dimethoxyphosphinyl)-, methyl ester] |  | inhibition in vivo at 10 mg/kg (Mus musculus, po, 216 h): 42%
COC(=O)C(CCC(=O)c1cccnc1)P(=O)(OC)OC (stereo not drawn) [Compound 4, 3-Pyridinepentanoic acid, α-(dimethoxyphosphinyl)-δ-oxo-, methyl ester] | 37 | 
COC(=O)C1(P(=O)(OC)OC)CC(C(=O)c2ccccc2)=NN1 (stereo not drawn) [Compound 9, 1H-Pyrazole-5-carboxylic acid, 3-benzoyl-5-(dimethoxyphosphinyl)-4,5-dihydro-, methyl ester] | 37 | 
COC(=O)C(CCc1nc(-c2ccccc2)cc(=O)n1C)P(=O)(OC)OC (stereo not drawn) [Compound 6a, 2-Pyrimidinebutanoic acid, α-(dimethoxyphosphinyl)-1,6-dihydro-1-methyl-6-oxo-4-phenyl-, methyl ester] | 51 | 
CCOC(=O)C(CC(C(=O)c1ccccc1)c1ccccc1)P(=O)(OCC)OCC (stereo not drawn) [Compound 3, Benzenepentanoic acid, α-(diethoxyphosphinyl)-δ-oxo-γ-phenyl-, ethyl ester] | 21 | 
CCOC(=O)C(CCC(=O)c1ccccc1)P(=O)(OCC)OCC (stereo not drawn) [Compound 1, Benzenepentanoic acid, α-(diethoxyphosphinyl)-δ-oxo-, ethyl ester] |  | inhibition in vivo at 50 mg/kg (Mus musculus, 216 h, at 50 MPK, PO, mBSA-sensitized mice, mBSA-soaked filter excised after nine days): 37%
